In PubChem BioAssay (NCI) one finds TGI data, which are given here for 2 molecules.

Assay in all cases: NCI-60 cell line screen, 48 h
The test system of assay [1] is DMS 114 small cell lung.
Assay [2] concerns DLD-1 colon.
Assay [3] has as its system DMS 273 small cell lung.
In assay [4] the test system is M19-MEL melanoma.
The subject of assay [5] is SNB-78 CNS.
Assay [6] has as its system KM20L2 colon.
The subject of assay [7] is HOP-18 NSCLC.
For assay [8], the system named is XF 498 CNS.

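These data come from cells grown in 96-well plates and exposed to compound for 48 hours at five concentrations. Definition used: TGI = concentration required for complete inhibition of growth.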 A value given as a limit tells only on which side of the number the result lay.

Consider `CN1C(=O)CSC1=S`, for which the TGI in assay [1], in assay [2], in assay [3], in assay [4], in assay [5] and in assay [6] was more than 100 µM throughout. Besides, the TGI in assay [7] is more than 100 µM.

For `COc1c(OC(C)=O)c(OC(C)=O)cc2c1-c1ccc(SC)c(=O)cc1C(NC(C)=O)CC2` (centres undefined), the TGI in assay [8] was more than 28.8 µM; in assay [2], more than 100 µM; in assay [3] it was more than 100 µM; in assay [4] it was more than 100 µM; in assay [5], more than 100 µM; in assay [6], 6.84 µM. In addition, the TGI in assay [7] was more than 100 µM.
